Consider 13 compounds from patent US11918592B2, “Inhibitors of cyclin dependent kinase 7 (CDK7)” (Syros Pharmaceuticals, Inc., priority 2018, dated 2024).

Read-outs that look alike come from different tables or passages of the source.

One test has as its system COV504 cells. The test can be described thus: Inhibition of cell proliferation, CyQUANT Direct, COV504. In kind it is cell-based. The following applies: Homo sapiens; COV504 ovarian cancer cells, 72-hour; read-out: COV 504 proliferation calculated IC50.
For test [1], the target named is CDK7/Cyclin H/MAT1 complex (Homo sapiens, UniProt P50613). The test can be described thus: CDK7 kinase inhibition assay (Caliper/LabChip EZ Reader).
The test system of a further test is COV318 cells. Description: Inhibition of cell proliferation, CyQUANT Direct, COV318. It is filed as cell-based. Conditions: Homo sapiens; COV318 ovarian cancer cells, 72-hour; read-out: COV 318 proliferation calculated IC50.
The target of another test is CDK2/Cyclin E1 complex (Homo sapiens, UniProt P24941). Description: CDK2 kinase inhibition assay (Caliper/LabChip EZ Reader).
A further test addresses CDK9/Cyclin T1 complex (Homo sapiens, UniProt P50750). Description: CDK9 kinase inhibition assay (Caliper/LabChip EZ Reader).
The subject of another test is MB453 cells. Description: Inhibition of cell proliferation, CyQUANT Direct, MB453. In kind it is cell-based, human. Conditions: Homo sapiens, read-out: MB 453 proliferation calculated IC50.
A further test deals with HCC70 cells. The test can be described thus: Inhibition of cell proliferation, CyQUANT Direct, HCC70. In kind it is cell-based, human. Conditions: Homo sapiens, read-out: HCC 70 proliferation calculated IC50.
Test [2] deals with CDK12 (aa686-1082)/Cyclin K complex (Homo sapiens, UniProt Q9NYV4). The test can be described thus: CDK12 kinase inhibition assay (Caliper/LabChip EZ Reader).
Setting [3] is: MB453 triple negative breast cancer cells, 72-hour.
Setting [4] is: HCC70 triple negative breast cancer cells, 72-hour.

Sequence of CDK9/Cyclin T1 complex (P50750 whole entry): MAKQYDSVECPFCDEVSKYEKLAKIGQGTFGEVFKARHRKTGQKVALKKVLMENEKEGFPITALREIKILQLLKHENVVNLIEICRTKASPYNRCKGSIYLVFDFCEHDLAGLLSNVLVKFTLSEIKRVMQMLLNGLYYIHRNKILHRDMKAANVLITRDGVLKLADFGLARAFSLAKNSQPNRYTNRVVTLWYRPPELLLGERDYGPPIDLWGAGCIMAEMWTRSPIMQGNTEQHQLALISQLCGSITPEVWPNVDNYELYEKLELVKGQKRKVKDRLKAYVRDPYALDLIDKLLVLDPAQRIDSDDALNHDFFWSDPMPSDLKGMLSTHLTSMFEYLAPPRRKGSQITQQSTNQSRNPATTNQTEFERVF
Sequence of CDK9/Cyclin T1 complex (O60563 whole entry partner): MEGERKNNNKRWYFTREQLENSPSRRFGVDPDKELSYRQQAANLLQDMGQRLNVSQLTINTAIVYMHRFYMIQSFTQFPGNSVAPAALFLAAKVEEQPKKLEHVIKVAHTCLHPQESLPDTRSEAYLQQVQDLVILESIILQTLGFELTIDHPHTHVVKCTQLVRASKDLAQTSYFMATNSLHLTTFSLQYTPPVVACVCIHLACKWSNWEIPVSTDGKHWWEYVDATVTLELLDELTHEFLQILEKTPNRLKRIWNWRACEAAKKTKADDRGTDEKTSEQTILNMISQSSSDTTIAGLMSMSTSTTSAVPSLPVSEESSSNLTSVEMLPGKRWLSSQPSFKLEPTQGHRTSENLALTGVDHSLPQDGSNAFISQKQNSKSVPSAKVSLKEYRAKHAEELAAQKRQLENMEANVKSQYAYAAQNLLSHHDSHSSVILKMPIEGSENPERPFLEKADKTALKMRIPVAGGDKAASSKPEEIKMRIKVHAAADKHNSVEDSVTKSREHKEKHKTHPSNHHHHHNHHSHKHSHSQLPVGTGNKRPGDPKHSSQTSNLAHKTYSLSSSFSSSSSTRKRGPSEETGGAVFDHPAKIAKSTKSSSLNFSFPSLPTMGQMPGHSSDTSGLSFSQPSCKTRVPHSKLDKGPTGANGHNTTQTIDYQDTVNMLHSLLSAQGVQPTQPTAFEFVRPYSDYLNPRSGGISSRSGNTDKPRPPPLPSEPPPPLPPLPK
Sequence of CDK7/Cyclin H/MAT1 complex (P50613 whole entry): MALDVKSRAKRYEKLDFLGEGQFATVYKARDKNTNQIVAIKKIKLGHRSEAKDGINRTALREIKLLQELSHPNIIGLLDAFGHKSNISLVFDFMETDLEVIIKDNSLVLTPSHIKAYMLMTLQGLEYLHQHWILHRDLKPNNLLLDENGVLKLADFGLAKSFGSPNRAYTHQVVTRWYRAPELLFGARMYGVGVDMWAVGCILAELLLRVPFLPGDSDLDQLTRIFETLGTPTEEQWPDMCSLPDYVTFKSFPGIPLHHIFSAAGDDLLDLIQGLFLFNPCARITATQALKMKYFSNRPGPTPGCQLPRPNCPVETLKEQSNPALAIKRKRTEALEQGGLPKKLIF
Sequence of CDK7/Cyclin H/MAT1 complex (P51946 whole entry partner): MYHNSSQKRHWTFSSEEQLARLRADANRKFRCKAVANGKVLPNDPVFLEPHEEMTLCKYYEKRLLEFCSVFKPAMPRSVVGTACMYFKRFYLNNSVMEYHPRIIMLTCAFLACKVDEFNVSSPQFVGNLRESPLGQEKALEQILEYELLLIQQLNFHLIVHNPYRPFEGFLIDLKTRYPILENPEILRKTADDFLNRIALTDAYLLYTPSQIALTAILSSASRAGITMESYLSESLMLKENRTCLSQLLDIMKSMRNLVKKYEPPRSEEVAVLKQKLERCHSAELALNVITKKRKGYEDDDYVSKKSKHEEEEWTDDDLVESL
Sequence of CDK7/Cyclin H/MAT1 complex (P51948 whole entry partner): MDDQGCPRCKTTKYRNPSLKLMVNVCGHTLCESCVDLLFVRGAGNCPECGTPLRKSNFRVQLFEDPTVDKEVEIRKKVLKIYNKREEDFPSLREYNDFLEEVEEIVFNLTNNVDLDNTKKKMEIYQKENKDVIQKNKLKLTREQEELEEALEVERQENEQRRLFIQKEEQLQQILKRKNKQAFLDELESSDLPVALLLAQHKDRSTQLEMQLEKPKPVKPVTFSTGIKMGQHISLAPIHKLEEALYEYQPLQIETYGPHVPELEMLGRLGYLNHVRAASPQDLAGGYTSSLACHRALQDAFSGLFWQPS
Sequence of CDK12 (aa686-1082)/Cyclin K complex (Q9NYV4 686-1082): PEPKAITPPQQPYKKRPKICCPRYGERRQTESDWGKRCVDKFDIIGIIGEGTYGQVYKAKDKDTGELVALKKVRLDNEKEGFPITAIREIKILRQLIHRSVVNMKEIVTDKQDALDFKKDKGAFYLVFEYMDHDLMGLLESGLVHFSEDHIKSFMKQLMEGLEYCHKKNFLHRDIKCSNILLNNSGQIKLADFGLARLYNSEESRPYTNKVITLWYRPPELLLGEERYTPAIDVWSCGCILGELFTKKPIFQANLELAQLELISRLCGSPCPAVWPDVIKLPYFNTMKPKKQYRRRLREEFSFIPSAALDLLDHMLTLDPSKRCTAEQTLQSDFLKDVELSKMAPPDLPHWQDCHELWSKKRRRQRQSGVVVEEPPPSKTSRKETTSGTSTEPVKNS
Sequence of CDK12 (aa686-1082)/Cyclin K complex (O75909 whole entry partner, the tested form may be a part): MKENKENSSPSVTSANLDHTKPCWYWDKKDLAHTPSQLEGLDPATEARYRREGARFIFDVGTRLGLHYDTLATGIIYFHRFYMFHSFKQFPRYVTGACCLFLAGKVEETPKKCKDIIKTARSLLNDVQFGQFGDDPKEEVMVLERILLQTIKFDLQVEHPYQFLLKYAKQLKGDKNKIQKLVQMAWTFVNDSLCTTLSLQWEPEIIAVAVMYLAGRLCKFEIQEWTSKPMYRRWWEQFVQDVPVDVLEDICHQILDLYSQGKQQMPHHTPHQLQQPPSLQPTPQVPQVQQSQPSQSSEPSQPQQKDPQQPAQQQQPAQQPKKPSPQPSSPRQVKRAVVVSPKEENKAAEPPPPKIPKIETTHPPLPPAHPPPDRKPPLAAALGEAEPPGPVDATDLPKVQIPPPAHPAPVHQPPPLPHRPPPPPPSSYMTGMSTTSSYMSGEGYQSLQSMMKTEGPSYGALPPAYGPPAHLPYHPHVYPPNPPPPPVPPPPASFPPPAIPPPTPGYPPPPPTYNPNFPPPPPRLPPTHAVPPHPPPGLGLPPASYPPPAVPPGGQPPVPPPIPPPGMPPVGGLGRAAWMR

In the case of `Cc1noc(C)c1-c1ccc2c(-c3nc(N[C@H]4CCCC4N4CCCC4)ncc3C(F)(F)F)c[nH]c2n1` (stereo partly drawn) [Compound 144, 4-[6-(3,5-dimethylisoxazol-4-yl)-1H-pyrrolo[2,3-b]pyridin-3-yl]-N-[(1S)-2-pyrrolidin-1-ylcyclopentyl]-5-(trifluoromethyl) pyrimidin-2-amine], the IC50 in the test with COV504 cells was less than 100 nM; in test [1] it was less than 30 nM; in the test with COV318 cells, less than 100 nM; on CDK2/Cyclin E1 complex it was greater than 500 nM; at CDK9/Cyclin T1 complex it was greater than 500 nM; in the test on MB453 cells (setting [3]), less than 100 nM. The IC50 in the test on HCC70 cells (setting [4]) is 100 to 500 nM; in test [2], greater than 500 nM.
For the compound `CCN[C@H]1CCC[C@@H]1Nc1ncc(C(F)(F)F)c(-c2c[nH]c3nc(-c4c(C)noc4C)ccc23)n1` [Compound 145, (1S, 2S)—N1-[4-[6-(3,5-dimethylisoxazol-4-yl)-1H-pyrrolo [2,3-b]pyridin-3-yl]-5-(trifluoromethyl)pyrimidin-2-yl]-N2-ethyl-cyclopentane-1,2-diamine], the IC50 is less than 100 nM in the test on COV504 cells; less than 30 nM in test [1]; less than 100 nM with COV318 cells; greater than 500 nM against CDK2/Cyclin E1 complex; greater than 500 nM on CDK9/Cyclin T1 complex; less than 100 nM in the test with MB453 cells (72 h). In addition, the IC50 was less than 100 nM with HCC70 cells (HCC70, 72 h) and greater than 500 nM in test [2].
With `Cc1noc(C)c1-c1ccc2c(-c3nc(N[C@H]4CCC[C@@H]4N4CCC4)ncc3C(F)(F)F)c[nH]c2n1` [Compound 146, N-[(1S, 2S)-2-(azetidin-1-yl)cyclopentyl]-4-[6-(3,5-dimethylisoxazol-4-yl)-1H-pyrrolo [2,3-b]pyridin-3-yl]-5-(trifluoromethyl) pyrimidin-2-amine], the IC50 is less than 100 nM in the test on COV504 cells; less than 30 nM in test [1]; greater than 2000 nM in the test on COV318 cells; greater than 500 nM on CDK2/Cyclin E1 complex; greater than 500 nM on CDK9/Cyclin T1 complex; less than 100 nM in the test on MB453 cells (72 h). Further, the IC50 in the test on HCC70 cells (HCC70, 72 h) was less than 100 nM; in test [2], greater than 500 nM.
Turning to `Cc1noc(C)c1-c1ccc2c(-c3nc(N[C@H]4CCC[C@@H]4NCC(F)F)ncc3C(F)(F)F)c[nH]c2n1` [Compound 147, (1S, 2S)—N2-(2,2-difluoroethyl)-N1-[4-[6-(3,5-dimethylisoxazol-4-yl)-1H-pyrrolo[2,3-b]pyridin-3-yl]-5-(trifluoromethyl)pyrimidin-2-yl] cyclopentane-1,2-diamine], the IC50 is 100 to 500 nM in the test with COV504 cells; less than 30 nM in test [1]; greater than 2000 nM in the test with COV318 cells; greater than 500 nM against CDK2/Cyclin E1 complex; greater than 500 nM against CDK9/Cyclin T1 complex; 100 to 500 nM with MB453 cells (setting [3]). Also, the IC50 with HCC70 cells (setting [4]) is 500 to 2000 nM; in test [2], greater than 500 nM.
On to `Cc1noc(C)c1-c1ccc2c(-c3nc(N[C@H]4CCC[C@@H]4N4CC[C@@H](F)C4)ncc3C(F)(F)F)c[nH]c2n1` [Compound 148, 4-[6-(3,5-dimethylisoxazol-4-yl)-1H-pyrrolo[2,3-b]pyridin-3-yl]-N-[(1S,2S)-2-[(3R)-3-fluoropyrrolidin-1-yl]cyclopentyl]-5-(trifluoromethyl)pyrimidin-2-amine], for which the IC50 was less than 100 nM in the test with COV504 cells; less than 30 nM in test [1]; greater than 2000 nM with COV318 cells; greater than 500 nM against CDK2/Cyclin E1 complex; greater than 500 nM against CDK9/Cyclin T1 complex; 100 to 500 nM in the test on MB453 cells (setting [3]). Further, the IC50 in the test on HCC70 cells (setting [4]) is 100 to 500 nM; in test [2], greater than 500 nM.
Take `Cc1noc(C)c1-c1ccc2c(-c3nc(N[C@H]4CCC[C@@H]4N4CC[C@H](F)C4)ncc3C(F)(F)F)c[nH]c2n1` [Compound 150, 4-[6-(3,5-dimethylisoxazol-4-yl)-1H-pyrrolo[2,3-b]pyridin-3-yl]-N-[(1S,2S)-2-[(3S)-3-fluoropyrrolidin-1-yl]cyclopentyl]-5-(trifluoromethyl)pyrimidin-2-amine]: the IC50 in the test on COV504 cells was 500 to 2000 nM; in test [1], 30 to 100 nM; in the test with COV318 cells it was greater than 2000 nM; on CDK2/Cyclin E1 complex, greater than 500 nM; at CDK9/Cyclin T1 complex, greater than 500 nM; with MB453 cells (setting [3]), greater than 2000 nM. The results for the IC50 (in the test with HCC70 cells (setting [4]); in test [2]) were 500 to 2000 nM and greater than 500 nM, respectively.
On to `Cc1noc(C)c1-c1ccc2c(-c3nc(N[C@H]4CCC[C@@H]4NCCF)ncc3C(F)(F)F)c[nH]c2n1` [Compound 151, (1S,2S)—N1-[4-[6-(3,5-dimethylisoxazol-4-yl)-1H-pyrrolo[2,3-b]pyridin-3-yl]-5-(trifluoromethyl)pyrimidin-2-yl]-N2-(2-fluoroethyl)cyclopentane-1,2-diamine], for which the IC50 is less than 100 nM with COV504 cells; less than 30 nM in test [1]; greater than 2000 nM in the test on COV318 cells; greater than 500 nM against CDK2/Cyclin E1 complex; greater than 500 nM against CDK9/Cyclin T1 complex; 100 to 500 nM in the test with MB453 cells (setting [3]). Further, the IC50 with HCC70 cells (setting [4]) was less than 100 nM; in test [2] it was greater than 500 nM.
As for `Cc1noc(C)c1-c1ccc2c(-c3nc(N[C@H]4CCC[C@@H]4NCCO)ncc3C(F)(F)F)c[nH]c2n1` [Compound 154, 2-[[(1S,2S)-2-[[4-[6-(3,5-dimethylisoxazol-4-yl)-1H-pyrrolo [2,3-b]pyridin-3-yl]-5-(trifluoromethyl)pyrimidin-2-yl]amino]cyclopentyl]amino]ethanol], the IC50 in the test on COV504 cells was less than 100 nM; in test [1], less than 30 nM; with COV318 cells, 100 to 500 nM; at CDK2/Cyclin E1 complex, greater than 500 nM; at CDK9/Cyclin T1 complex it was greater than 500 nM; with MB453 cells (setting [3]), less than 100 nM. Further, the values for the IC50 (with HCC70 cells (setting [4]); in test [2]) were less than 100 nM and greater than 500 nM, respectively.
On to `Cc1noc(C)c1-c1ccc2c(-c3nc(N[C@H]4CCC[C@@H]4N4CC(F)C4)ncc3C(F)(F)F)c[nH]c2n1` [Compound 155, 4-[6-(3,5-dimethylisoxazol-4-yl)-1H-pyrrolo [2,3-b]pyridin-3-yl]-N-[(1S, 2S)-2-(3-fluoroazetidin-1-yl)cyclopentyl]-5-(trifluoromethyl) pyrimidin-2-amine], for which the IC50 is greater than 2000 nM in the test with COV504 cells; 100 to 500 nM in test [1]; greater than 2000 nM in the test with COV318 cells; greater than 500 nM at CDK2/Cyclin E1 complex; greater than 500 nM at CDK9/Cyclin T1 complex; greater than 2000 nM in the test with MB453 cells (setting [3]). Also, the IC50 was greater than 2000 nM in the test with HCC70 cells (setting [4]) and greater than 500 nM in test [2].
With `Cc1noc(C)c1-c1ccc2c(-c3nc(N[C@H]4CCC[C@H]4N4CC(F)C4)ncc3C(F)(F)F)c[nH]c2n1` [Compound 156, 4-[6-(3,5-dimethylisoxazol-4-yl)-1H-pyrrolo [2,3-b]pyridin-3-yl]-N-[(1S, 2R)-2-(3-fluoroazetidin-1-yl)cyclopentyl]-5-(trifluoromethyl) pyrimidin-2-amine], the IC50 is 100 to 500 nM in the test with COV504 cells; less than 30 nM in test [1]; greater than 2000 nM in the test with COV318 cells; greater than 500 nM against CDK2/Cyclin E1 complex; greater than 500 nM against CDK9/Cyclin T1 complex; 500 to 2000 nM in the test with MB453 cells (setting [3]). For the same compound, the IC50 with HCC70 cells (setting [4]) was 100 to 500 nM; in test [2] it was greater than 500 nM.
Consider `Cc1noc(C)c1-c1ccc2c(-c3nc(N[C@H]4CCC[C@@H]4N)ncc3C(F)(F)F)n[nH]c2n1` [Compound 157, (1S,2S)—N1-[4-[6-(3,5-dimethylisoxazol-4-yl)-1H-pyrazolo [3,4-b]pyridin-3-yl]-5-(trifluoromethyl)pyrimidin-2-yl]cyclopentane-1,2-diamine], for which the IC50 is 100 to 500 nM with COV504 cells; less than 30 nM in test [1]; 100 to 500 nM with COV318 cells; greater than 500 nM at CDK2/Cyclin E1 complex; greater than 500 nM on CDK9/Cyclin T1 complex; 100 to 500 nM in the test on MB453 cells (setting [3]). The IC50 was 100 to 500 nM in the test on HCC70 cells (setting [4]) and greater than 500 nM in test [2].
In the case of `Cc1nsc(-c2ccc3c(-c4nc(N[C@H]5CCC[C@@H]5N)ncc4C(F)(F)F)c[nH]c3n2)n1` [Compound 158, (1S,2S)—N1-[4-[6-(3-methyl-1,2,4-thiadiazol-5-yl)-1H-pyrrolo [2,3-b]pyridin-3-yl]-5-(trifluoromethyl)pyrimidin-2-yl]cyclopentane-1,2-diamine], the IC50 in the test on COV504 cells was greater than 2000 nM; in test [1], less than 30 nM; in the test on COV318 cells, greater than 2000 nM; on CDK2/Cyclin E1 complex, greater than 500 nM; against CDK9/Cyclin T1 complex it was greater than 500 nM; in the test on MB453 cells (setting [3]) it was 500 to 2000 nM. For the same compound, the IC50 in the test on HCC70 cells (setting [4]) was 500 to 2000 nM; in test [2], greater than 500 nM.
For the compound `Cc1noc(C)c1-c1ccc2c(-c3nc(N[C@H]4CCC[C@@H]4N4CC(O)C4)ncc3C(F)(F)F)c[nH]c2n1` [Compound 159, 1-[(1S,2S)-2-[[4-[6-(3,5-dimethylisoxazol-4-yl)-1H-pyrrolo[2,3-b]pyridin-3-yl]-5-(trifluoromethyl)pyrimidin-2-yl]amino]cyclopentyl] azetidin-3-ol], the IC50 is 100 to 500 nM with COV504 cells; less than 30 nM in test [1]; greater than 2000 nM with COV318 cells; greater than 500 nM at CDK2/Cyclin E1 complex; greater than 500 nM on CDK9/Cyclin T1 complex; 100 to 500 nM with MB453 cells (setting [3]). Also, the IC50 is less than 100 nM in the test with HCC70 cells (setting [4]) and greater than 500 nM in test [2].
